Data from patent US8084492B2, “Benzofuran compound and pharmaceutical composition containing the same” (The New Industry Research Organization, priority 2004, dated 2011).

Legend:
human BLT1 = biological target: T1, human BLT1 (Homo sapiens, UniProt Q15722); test: LTB4-induced intracellular calcium increase (Fluo-3) in CHO cells expressing human BLT1; assay type: cell-based; conditions: CHO cells harbouring BLT1; compound 10 μM; 100 nM LTB4; fluorescence AUC in 10 min
T1 construct: expressed in transfected cells; host or cells: CHO cells
Protocol: (§1) CHO cells harbouring a gene encoding human BLT1 or human BLT2 and functionally expressing the receptor were seeded in a 96 well plate at 4×10^4 cells/well, and cultured at 37° C. for 60 min. The culture supernatant was removed and a loading buffer (100 μl) containing 4 μM Fluo-3 (manufactured by Dojindo), 0.04% pluoronic acid (manufactured by Sigma) and 1% serum was added. The cells were cultured at 37° C. for 30 min to introduce Fluo-3 into the cells. After culture, the cells were washed with a buffer, and a buffer containing the compound of Example 1 (10 μM (final concentration)) was added, and then 100 nM (final concentration) of leukotriene B4 (LTB4) was added. Changes in the intracellular calcium ion concentration were measured with Flexstation (manufactured by Molecular Devices Corporation) as an increase in the fluorescence intensity (area under a curve in a time-course graph of fluorescence intensity in 10 min measurement). As a positive control of BLT1 and BLT2 antagonists, ZK158252, a known LTB4 inhibitor, was used.

human BLT2 = biological target: T2, human BLT2 (Homo sapiens, UniProt Q9NPC1); test: LTB4-induced intracellular calcium increase (Fluo-3) in CHO cells expressing human BLT2; assay type: cell-based; conditions: CHO cells harbouring BLT2; compound 10 μM; 100 nM LTB4; fluorescence AUC in 10 min
T2 construct: expressed in transfected cells; host or cells: CHO cells
T2 sequence (Q9NPC1 1-358): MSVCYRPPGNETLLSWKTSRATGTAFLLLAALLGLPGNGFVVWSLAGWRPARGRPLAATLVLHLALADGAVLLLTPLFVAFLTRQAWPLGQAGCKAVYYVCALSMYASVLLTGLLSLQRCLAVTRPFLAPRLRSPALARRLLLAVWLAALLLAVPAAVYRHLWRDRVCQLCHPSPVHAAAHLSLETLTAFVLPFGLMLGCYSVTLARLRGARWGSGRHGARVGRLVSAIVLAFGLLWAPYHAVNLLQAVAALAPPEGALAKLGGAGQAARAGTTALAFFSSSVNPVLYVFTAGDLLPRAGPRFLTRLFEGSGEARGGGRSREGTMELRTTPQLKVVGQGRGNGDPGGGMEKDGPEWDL
Protocol: as §1

T1 sequence (Q15722 whole entry): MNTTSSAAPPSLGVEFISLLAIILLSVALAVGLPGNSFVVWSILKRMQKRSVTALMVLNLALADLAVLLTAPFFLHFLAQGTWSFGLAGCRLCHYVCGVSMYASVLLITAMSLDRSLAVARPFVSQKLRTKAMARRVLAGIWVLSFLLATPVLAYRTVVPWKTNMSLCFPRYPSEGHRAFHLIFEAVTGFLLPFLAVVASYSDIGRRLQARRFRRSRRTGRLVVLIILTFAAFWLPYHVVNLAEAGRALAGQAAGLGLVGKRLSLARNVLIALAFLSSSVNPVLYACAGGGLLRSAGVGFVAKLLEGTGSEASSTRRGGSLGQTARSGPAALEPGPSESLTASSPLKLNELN

Row | SMILES | melting point [°C] | suppression of increase in the intracellular calcium ion concentration due to LTB4 stimulation (human BLT1) | suppression of increase in the intracellular calcium ion concentration due to LTB4 stimulation (human BLT2)
1 | COc1cccc(NC(=O)/C=C(/c2ccc(Cl)cc2)c2cc3cc(Br)ccc3o2)c1 [Example 16] | 160.1 to 162.2 | – | –
2 | COc1cccc(NC(=O)/C=C(\C)c2c(C)oc3ccc(Cl)cc23)c1 [Example 4] | 139 to 142 | – | –
3 | COc1ccc(CCNC(=O)/C=C(\C)c2c(C)oc3ccc(Br)cc23)cc1OC [Example 5] | 143.1 to 150 | – | –
4 | COc1ccc(CCNC(=O)/C=C(\C)c2c(C)oc3ccc(Cl)cc23)cc1OC [Example 3] | 73 to 76 | – | –
5 | CCN(CC)C(=O)/C=C(\C)c1c(C)oc2ccc([N+](=O)[O-])cc12 [Example 20] | 130 to 134 | – | –
6 | COc1ccc(CCNC(=O)/C=C(\C)c2c(-c3ccccc3)oc3ccc(Cl)cc23)cc1OC [Example 11] | 169.1 to 171.9 | – | –
7 | COc1ccc(CCNC(=O)/C=C(/C)c2c(C)oc3ccc(Cl)cc23)cc1OC [Example 2] | 150.9 to 151.5 | – | –
8 | COc1ccc(CCNC(=O)/C=C(/C)c2c(C)oc3ccc(Br)cc23)cc1OC [Example 15] | 150.1 to 153.5 | – | –
9 | CCN(CC)C(=O)/C=C(/c1ccc(OC)cc1)c1cc2cc(Br)ccc2o1 [Example 13] | 93.5 to 96 | – | –
10 | COc1ccc(C(=CC(=O)NCCc2ccc(OC)c(OC)c2)c2cc3cc(Br)ccc3o2)cc1 [Example 17] | 112.2 to 117 | – | –
11 | O=C(/C=C/c1coc2ccccc12)N1CCOCC1 [Example 14] | 132.1 to 134.6 | – | –
12 | COc1ccc(CCNC(=O)C=C(C)c2c(C)oc3ccc([N+](=O)[O-])cc23)cc1OC [Example 21] | 116.9 to 124.4 | – | –
13 | CCN(CC)C(=O)/C=C(/c1ccc(Cl)cc1)c1cc2cc(Br)ccc2o1 [Example 6] | 106.7 to 109.8 | – | –
14 | CCN(CC)C(=O)/C=C(\C)c1cc2cccc(OC(C)c3ccccc3)c2o1 (stereo not shown) [Example 1, (E)-3-[7-(1-phenylethoxy)-benzofuran-2-yl]-but-2-enoic acid-diethylamide] | – | weaker as compared to the effect on BLT2 | suppressed by the compound of Example 1 at an intensity equivalent to or greater than the suppression by ZK158252
15 | O=C(O)CCC/C=C1\CCCCC1/C=C/C=C/C(O)C1(CC#Cc2ccccc2)CCC1 (stereo not shown) [ZK158252, reference compound] | – | significantly suppressed | significantly suppressed
16 | O=C(/C=C(/c1ccc(Cl)cc1)c1cc2cc(Br)ccc2o1)N1CCOCC1 [Example 10] | 150 to 153.5 | – | –
17 | COc1ccc(CCNC(=O)/C=C/c2coc3ccccc23)cc1OC [Example 9] | 138.1 to 140.3 | – | –
